For eleven compounds, EC50 and CC50 results are on record in US20260217688A1, “INHIBITORS OF JAK2” (Llydaw Therapeutics, Inc., priority 2022, published 2026).

For series [1], the target named is T1, JAK2 JH2 (Homo sapiens, UniProt O60674).
T1 construct: Enzyme: JAK2 JH2, His-Avi-Tag, Biotin-Labeled (BPS Bioscience, Cat #79074) 1 nM; His; purchased BPS Bioscience 79074
Description: JAK2 JH2 TR-FRET Assay. The format is binding. Conditions: JAK2 JH2 1 nM, Tracer ZE84-0003 10 nM. As for the experimental part:
Assay Buffer 1×: • 20 mM HEPES pH 7.2-7.4; • 10 mM MgCl2; • 0.015% Brij-35; • 2 mM DTT; • 0.05 mg/ml BSA.
Final assay concentrations: • DMSO: 0.25%; • Streptavidin Tb-cryptate (Cisbio, Cat #610SATLB) 0.2 nM; • Enzyme: JAK2 JH2, His-Avi-Tag, Biotin-Labeled (BPS Bioscience, Cat #79074) 1 nM; • Probe: Tracer ZE84-0003 (ChemRar) 10 nM.
Materials: • Reaction plate: ProxiPlate-384 Plus White Plate (PerkinElmer); • Dilution plate: Diamond Well Plate (Axygen, Cat #P-384-120 SQ-C-S); • Compounds plate: Diamond Well Plate (Axygen, Cat #P-384-120 SQ-C-S).
Assay protocol: • 1. Prepare 400× solutions of compounds in DMSO into Compounds plate; • 2. Prepare Dilution plate: add 39 μL of 1× Assay buffer per well of Dilution plate; • 3. Prepare 2×Tb-cryptate mix in 1× Assay buffer. Add 10 μL of 2×Tb-cryptate mix to K-(Tb-cryptate and Probe without Enzyme) wells and blank (Tb-cryptate without Probe and Enzyme) wells; • 4. Add JAK2 JH2 into the rest of 2×Tb-cryptate mix to make 2×JAK2 JH2+Tb-cryptate mix. Add 10 μL per well into Reaction plate; • 5. Centrifuge plate at 200 g for 1 min; • 6. Dilute 1 μL of 400× compounds in 39 μL 1× Assay buffer in Dilution plate; • 7. Add 2 μL of 10× compounds from Dilution plate to Reaction plate with 10 μL of JAK2 JH2+Tb-cryptate mix; • 8. Centrifuge plate at 200 g for 1 min; • 9. Pre-incubate Reaction plate with compounds 15 min; • 10. Prepare 2.5× Tracer mix; • 11. Add 8 μL of 2.5× Tracer mix into appropriate wells of Reaction plate; • 12. Centrifuge plate at 800 g for 3 min; • 13. Incubate at rt for 15 min; • 14. Measure Fluorescence using Microplate Reader (Ex: TR, Em1/Em2: 482/520). The results of this assay are shown in the Table B. The values of EC50 shown as a letters A-D, where: A≤0.01 μM; 0.01 μM<B≤0.05 μM; 0.05 μM<C≤0.1 μM; D>0.1.

Series [2] is described as follows: Proliferation inhibition assay (CellTiter-Glo), Ba/F3 JAK2 wt. It is filed as cell-based. Conditions: mouse, Ba/F3 (JAK2 wt) cells, with 10 ng/ml rmIL-3, 72 h; read-out: Ba/F3 JAK2 wt + IL3, CC50 3 days. Here is the method: (§1) Ba/F3 (JAK2 wt) (ABM, T3076) cells and Ba/F3 (JAK2 V617F) (WuXi AppTec) cells were grown in RPMI-1640 (Gibco, cat. number 21870) supplemented with 10% FBS (Hyclone Laboratories Inc, Cat #SV30160.03), 1× Antibiotic-antimycotic (Gibco, Cat #15240-062), 2× Sodium pyruvate (Paneco, cat #F023), 2× Essential amino acids (Paneco, cat #F115/100), 1× Non-Essential amino acids (Paneco, cat #F116) at 37° C. in 5% CO2 atmosphere.
(§2) For the proliferation inhibition assay Ba/F3 (JAK2 wt) and Ba/F3 (JAK2 V617F) cells were seeded into a CellBIND® 384-well Flat Clear Bottom Black Polystyrene Microplates (Corning, USA, Cat #3770) at a density of 4000 cells per well in complete culture medium with or without 10 ng/ml rmIL-3 (RD systems, USA, Cat #403-ML-025) using Biomek FX/NX (384) liquid handler, 45 μl of cell suspension in complete culture medium per well. 500× compound's stocks in DMSO (Sigma Cat #D2650) were prepared in compounds plate (Diamond Well Plate, Axigen, Cat #P-384-120 SQ-C-S) applying Biomek 2000. 1 μl of 500× compounds stock was added to 49 μl of complete culture medium into Dilution plate (Diamond Well Plate, Axigen, Cat #P-384-120 SQ-C-S), mixed and then 5 μl of 10× compounds solution was transferred to cells using Biomek FX/NX (384) liquid handler. The centrifugation at 100 g for 1 min at Eppendorf 5810 followed. Final DMSO concentration in assay was 0.2%. All treatments were performed in technical and biological duplicates. Treated cells were incubated for 72 h at 37° C. with 5% CO2.
(§3) After 3 days of incubation, CellTiter-Glo Luminescent Cell Viability Assay (Promega) was performed. 10 μl of CellTiter-Glo (Promega, CAT #G7572) was added to the cells using Biomek FX/NX (384) liquid handler. The assay plate was centrifuged at 100 g for 1 min and luminescence signal was measured using Microplate Reader (CLARIOStar).
On the technique in general: Cellular ATP, detected with luciferase, serves as a proxy for viable cell number.

For series [3], the system named is Ba/F3 (JAK2 V617F) cells. As to the kind of experiment: Proliferation inhibition assay (CellTiter-Glo), Ba/F3 JAK2 V617F. The format is cell-based. As to conditions: Mus musculus, BaF3; without IL3, 72 h; read-out: Ba/F3 JAK2 V617F, CC50 3 days. Here is the method: as §1, §2, §3

T1 sequence (O60674 545-809 limits assumed): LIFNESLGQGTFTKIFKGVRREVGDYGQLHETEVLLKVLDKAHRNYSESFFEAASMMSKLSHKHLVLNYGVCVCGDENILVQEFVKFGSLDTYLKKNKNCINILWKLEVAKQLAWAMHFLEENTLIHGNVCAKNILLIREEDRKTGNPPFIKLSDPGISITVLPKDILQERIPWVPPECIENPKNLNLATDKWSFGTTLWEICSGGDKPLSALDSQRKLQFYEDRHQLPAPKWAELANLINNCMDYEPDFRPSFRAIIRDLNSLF

In series [1], `COc1c(Nc2nc(Nc3cnn(CCN(CC(C)C)CC(C)C)c3)ncc2C(N)=O)cccc1-c1ccccn1` [Compound 42, 2-[[1-[2-(diisobutylamino)ethyl]pyrazol-4-yl]amino]-4-[2-methoxy-3-(2-pyridyl)anilino]pyrimidine-5-carboxamide] showed an EC50 above 0.1 µM. Moreover, in series [2], the CC50 at 72 h was 5 to 10 µM. Also, the CC50 in series [3] lay in the range of 1 to 5 µM.
On the same counts, the results for `COc1c(Nc2nc(Nc3cnn(C4CCN(C)CC4)c3)ncc2C(N)=O)cccc1-c1ccccn1` [Compound 47] are above 0.1 µM, 5 to 10 µM and 1 to 5 µM.
On the same counts, the results for `COc1c(Nc2nc(Nc3cnn(CCN(CC(C)C)CC(C)C)c3)ncc2C(N)=O)cccc1-c1nc2ccccc2o1` [Compound 34] are above 0.1 µM, 5 to 10 µM and 1 to 5 µM.
For the compound `COc1c(Nc2nc(Nc3cnn(C4CCOCC4)c3)ncc2C(N)=O)cccc1-c1nc2ccccc2o1` [Compound 44, 4-[3-(1,3-benzoxazol-2-yl)-2-methoxy-anilino]-2-[(1-tetrahydropyran-4-ylpyrazol-4-yl)amino]pyrimidine-5-carboxamide], the concentration for a half-maximal effect (EC50) in series [1] lay within 0.01 to 0.05 µM. For the same compound, in series [2], the CC50 at 72 h lay within 1 to 5 µM. Further, the CC50 in series [3] is at most 0.5 µM.
The matching figures for `COc1c(Nc2nc(Nc3cnn(CC(C)C)c3)ncc2C(N)=O)cccc1-c1nc2ccccc2o1` [Compound 56, 4-[3-(1,3-benzoxazol-2-yl)-2-methoxy-anilino]-2-[(1-isobutylpyrazol-4-yl)amino]pyrimidine-5-carboxamide]: above 0.1 µM, 5 to 10 µM and 0.5 to 1 µM.
On the same counts, the results for `COc1c(Nc2nc(Nc3cnn(CCCN(C)C)c3)ncc2C(N)=O)cccc1-c1nc2ccccc2o1` [Compound 46, 4-[3-(1,3-benzoxazol-2-yl)-2-methoxy-anilino]-2-[[1-[3-(dimethylamino)propyl]pyrazol-4-yl]amino]pyrimidine-5-carboxamide] are 0.05 to 0.1 µM, 1 to 5 µM and at most 0.5 µM.
On the same counts, the results for `COc1c(Nc2nc(Nc3cnn(C4CCN(C(C)C)CC4)c3)ncc2C(N)=O)cccc1-c1ccccn1` [Compound 48, 2-[[1-(1-isopropyl-4-piperidyl)pyrazol-4-yl]amino]-4-[2-methoxy-3-(2-pyridyl)anilino]pyrimidine-5-carboxamide] are 0.05 to 0.1 µM, 1 to 5 µM and at most 0.5 µM.
Turning to `COc1c(Nc2nc(Nc3cnn(C45CC6CC(CC(C6)C4)C5)c3)ncc2C(N)=O)cccc1-c1ccccn1` [Compound 41, 2-[[1-(1-adamantyl)pyrazol-4-yl]amino]-4-[2-methoxy-3-(2-pyridyl)anilino]pyrimidine-5-carboxamide], in series [1], the EC50 was above 0.1 µM. The CC50 at 72 h in series [2] was 5 to 10 µM. Moreover, the CC50 in series [3] lay in the range of 1 to 5 µM.
As to `COCCCn1cc(Nc2ncc(C(N)=O)c(Nc3cccc(-c4nc5ccccc5o4)c3OC)n2)cn1` [Compound 52, 4-[3-(1,3-benzoxazol-2-yl)-2-methoxy-anilino]-2-[[1-(3-methoxypropyl)pyrazol-4-yl]amino]pyrimidine-5-carboxamide], the EC50 in series [1] lay in the range of 0.01 to 0.05 µM. The CC50 at 72 h in series [2] fell in the range of 1 to 5 µM. For the same compound, the CC50 in series [3] is at most 0.5 µM.
On the same counts, the results for `CCOCCn1cc(Nc2ncc(C(N)=O)c(Nc3cccc(-c4ncn(C)n4)c3OC)n2)cn1` [Compound 55, 2-[[1-(2-ethoxyethyl)pyrazol-4-yl]amino]-4-[2-methoxy-3-(1-methyl-1,2,4-triazol-3-yl)anilino]pyrimidine-5-carboxamide] are 0.01 to 0.05 µM, above 10 µM and 1 to 5 µM.
The matching figures for `COc1c(Nc2nc(Nc3cnn(C(C)C)c3)ncc2C(N)=O)cccc1-c1ccccn1` [Compound 38, 2-[(1-isopropylpyrazol-4-yl)amino]-4-[2-methoxy-3-(2-pyridyl)anilino]pyrimidine-5-carboxamide]: 0.01 to 0.05 µM, 5 to 10 µM and at most 0.5 µM.

By EC50 is commonly meant the midpoint of the concentration-response curve.
